{"source": "ChEMBL document CHEMBL5465560", "about": "“Selectivity Literature for EUbOPEN Chemogenomic Library” (2024)", "key": {"[1]": {"target": "Phosphatidylinositol 4-phosphate 5-kinase type-1 gamma (Homo sapiens) (UniProt O60331)", "sequence (O60331 whole entry)": "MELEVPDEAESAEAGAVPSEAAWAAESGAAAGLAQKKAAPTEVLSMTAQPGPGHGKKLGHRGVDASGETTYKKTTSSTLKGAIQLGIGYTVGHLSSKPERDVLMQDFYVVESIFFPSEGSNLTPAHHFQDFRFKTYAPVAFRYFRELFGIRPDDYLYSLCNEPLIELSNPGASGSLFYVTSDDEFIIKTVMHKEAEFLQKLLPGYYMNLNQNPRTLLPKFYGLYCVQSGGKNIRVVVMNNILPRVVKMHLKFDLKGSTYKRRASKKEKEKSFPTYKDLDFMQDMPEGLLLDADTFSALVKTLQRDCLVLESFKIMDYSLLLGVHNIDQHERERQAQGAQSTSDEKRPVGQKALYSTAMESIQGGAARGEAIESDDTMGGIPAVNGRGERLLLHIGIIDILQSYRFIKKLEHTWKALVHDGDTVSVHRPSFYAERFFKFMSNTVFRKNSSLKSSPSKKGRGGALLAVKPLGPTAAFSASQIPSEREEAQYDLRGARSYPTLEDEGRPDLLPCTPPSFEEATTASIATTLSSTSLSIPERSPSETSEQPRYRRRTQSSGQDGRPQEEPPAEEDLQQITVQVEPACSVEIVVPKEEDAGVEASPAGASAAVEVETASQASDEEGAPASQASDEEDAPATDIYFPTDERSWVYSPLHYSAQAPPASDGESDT", "assay": "Selectivity interaction (KinomeScan (DiscoverX)) EUB0000666a PIP5K1C", "conditions": "at 10 µM"}, "[2]": {"system": "Receptor-type tyrosine-protein kinase FLT3 (Homo sapiens), P36888 [UNDEFINED MUTATION]", "assay": "(§1) Selectivity interaction (KinomeScan (DiscoverX)) EUB0001049a FLT3", "conditions": "at 1 µM"}, "[3]": {"system": "T1, Receptor-type tyrosine-protein kinase FLT3 (Homo sapiens), P36888 [D835H]", "T1 sequence (whole entry)": "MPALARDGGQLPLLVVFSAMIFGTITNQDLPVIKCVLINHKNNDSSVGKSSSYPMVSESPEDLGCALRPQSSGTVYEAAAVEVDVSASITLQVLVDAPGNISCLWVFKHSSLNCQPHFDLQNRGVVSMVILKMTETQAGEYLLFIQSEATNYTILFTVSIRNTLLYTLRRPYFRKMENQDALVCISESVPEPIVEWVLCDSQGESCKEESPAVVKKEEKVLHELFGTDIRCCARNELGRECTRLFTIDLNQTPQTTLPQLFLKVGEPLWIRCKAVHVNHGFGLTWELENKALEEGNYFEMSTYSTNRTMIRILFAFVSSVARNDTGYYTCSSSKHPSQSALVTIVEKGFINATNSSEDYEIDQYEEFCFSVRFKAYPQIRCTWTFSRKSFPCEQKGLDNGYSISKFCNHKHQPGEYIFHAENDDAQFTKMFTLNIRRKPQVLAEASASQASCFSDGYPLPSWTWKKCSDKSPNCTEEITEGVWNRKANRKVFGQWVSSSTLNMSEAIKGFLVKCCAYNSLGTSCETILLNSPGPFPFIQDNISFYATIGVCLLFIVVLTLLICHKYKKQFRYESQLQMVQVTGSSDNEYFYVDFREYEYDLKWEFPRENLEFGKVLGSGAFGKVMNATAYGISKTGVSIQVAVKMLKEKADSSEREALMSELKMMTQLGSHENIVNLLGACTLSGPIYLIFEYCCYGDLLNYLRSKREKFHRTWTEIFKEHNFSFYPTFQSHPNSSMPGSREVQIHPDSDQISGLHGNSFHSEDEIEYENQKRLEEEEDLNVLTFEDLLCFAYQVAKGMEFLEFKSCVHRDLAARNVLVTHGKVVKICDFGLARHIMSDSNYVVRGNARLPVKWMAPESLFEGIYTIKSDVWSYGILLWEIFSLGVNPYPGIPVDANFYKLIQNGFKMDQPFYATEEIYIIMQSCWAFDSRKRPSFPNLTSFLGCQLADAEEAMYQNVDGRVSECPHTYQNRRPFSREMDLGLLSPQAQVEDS", "assay": "as §1", "conditions": "at 1 µM"}, "[4]": {"target": "T2, Atypical kinase COQ8B, mitochondrial (Homo sapiens) (UniProt Q96D53)", "T2 sequence (whole entry)": "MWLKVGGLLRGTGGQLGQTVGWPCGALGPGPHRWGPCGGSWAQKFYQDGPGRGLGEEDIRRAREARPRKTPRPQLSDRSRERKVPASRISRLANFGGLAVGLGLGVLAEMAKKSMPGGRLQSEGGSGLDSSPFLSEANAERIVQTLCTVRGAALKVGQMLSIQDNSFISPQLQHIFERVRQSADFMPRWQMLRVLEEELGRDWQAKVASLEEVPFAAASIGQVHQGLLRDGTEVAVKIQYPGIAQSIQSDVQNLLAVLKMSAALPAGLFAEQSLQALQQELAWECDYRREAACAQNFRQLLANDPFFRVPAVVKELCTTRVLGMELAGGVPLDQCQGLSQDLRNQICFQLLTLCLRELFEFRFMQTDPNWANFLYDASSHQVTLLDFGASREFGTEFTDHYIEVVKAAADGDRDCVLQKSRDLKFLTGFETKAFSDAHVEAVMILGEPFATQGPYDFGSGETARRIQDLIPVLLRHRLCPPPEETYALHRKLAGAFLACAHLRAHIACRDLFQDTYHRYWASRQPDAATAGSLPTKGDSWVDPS", "assay": "Selectivity interaction (KinomeScan (DiscoverX)) EUB0000618a ADCK4", "conditions": "at 10 µM"}, "[5]": {"target": "T3, Serine/threonine-protein kinase Nek9 (Homo sapiens) (UniProt Q8TD19)", "T3 sequence (whole entry)": "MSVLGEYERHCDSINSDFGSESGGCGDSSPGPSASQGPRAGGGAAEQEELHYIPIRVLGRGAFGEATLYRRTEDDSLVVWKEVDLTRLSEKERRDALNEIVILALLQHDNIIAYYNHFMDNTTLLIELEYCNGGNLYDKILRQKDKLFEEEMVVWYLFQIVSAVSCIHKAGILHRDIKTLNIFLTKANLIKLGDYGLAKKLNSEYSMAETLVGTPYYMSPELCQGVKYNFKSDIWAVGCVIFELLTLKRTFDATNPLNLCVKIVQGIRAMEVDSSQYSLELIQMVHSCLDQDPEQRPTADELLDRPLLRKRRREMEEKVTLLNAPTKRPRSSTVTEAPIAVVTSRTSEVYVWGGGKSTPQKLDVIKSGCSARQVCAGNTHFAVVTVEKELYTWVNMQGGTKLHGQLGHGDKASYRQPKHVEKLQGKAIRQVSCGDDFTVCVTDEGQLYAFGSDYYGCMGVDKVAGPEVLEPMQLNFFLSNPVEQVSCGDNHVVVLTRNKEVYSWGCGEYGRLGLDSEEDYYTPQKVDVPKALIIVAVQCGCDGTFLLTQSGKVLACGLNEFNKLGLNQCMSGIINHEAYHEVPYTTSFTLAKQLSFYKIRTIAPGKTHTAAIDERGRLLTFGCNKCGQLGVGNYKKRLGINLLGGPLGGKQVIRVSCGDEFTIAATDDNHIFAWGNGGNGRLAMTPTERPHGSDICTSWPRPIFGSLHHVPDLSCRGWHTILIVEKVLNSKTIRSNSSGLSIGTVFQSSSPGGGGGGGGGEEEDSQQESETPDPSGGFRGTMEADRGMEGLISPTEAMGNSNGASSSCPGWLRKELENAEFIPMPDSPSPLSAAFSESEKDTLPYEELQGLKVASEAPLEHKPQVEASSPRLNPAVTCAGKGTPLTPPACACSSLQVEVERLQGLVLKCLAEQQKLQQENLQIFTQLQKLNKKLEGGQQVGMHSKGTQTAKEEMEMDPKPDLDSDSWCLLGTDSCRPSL", "assay": "Selectivity interaction (ActivX KiNativ screen (kinase selectivity in THP-1 cell lysates)) EUB0000639a NEK9", "format": "subcellular", "conditions": "lysate, at 5 µM"}}}
{"smiles": "O=C(NOC[C@H](O)CO)c1ccc(F)c(F)c1Nc1ccc(I)cc1F", "values": [{"measurement": "% of control", "setting": "[1]", "result": 100, "unit": "%"}]}
{"smiles": "COc1cc(Nc2nc(C)cc(-c3cnn4nc(OC)ccc34)n2)cc(C(F)(F)F)c1", "values": [{"measurement": "% of control", "setting": "[2]", "result": 81, "unit": "%"}, {"measurement": "% of control", "setting": "[3]", "result": 93, "unit": "%"}]}
{"smiles": "O[C@H]1CC[C@H](Nc2ncc3nc(Nc4c(F)cc(F)cc4F)n([C@H]4CCOC4)c3n2)CC1", "values": [{"measurement": "% of control", "setting": "[4]", "result": 87, "unit": "%"}]}
{"smiles": "CC[C@@H]1[C@H](F)C(=O)N[C@@H]1COc1nccc2cc(C(N)=O)c(OC)cc12", "note": "[ZIMLOVISERTIB]", "values": [{"measurement": "% of inhibition", "setting": "[5]", "result": 8.8, "unit": "%"}]}
